This is an account of results in patent US20050107400A1, “Use of pyrazolopyridines as therapeutic compounds” (priority 2001, published 2005).

The term IC50 denotes the concentration that inhibits the measured activity by half.

SMILES strings stand for the structures. Some results are limits rather than exact numbers.

The first assay relates to HSV-1. The assay can be described thus: HSV-1 replication in infected Vero 76 cells, DNA hybridization capture assay. Particulars: Human alphaherpesvirus 1, Vero 76. Format: cell-based, herpes simplex virus 1. How it is done: a) Tissue Culture and HSV Infection.
Vero 76 cells were maintained in MEM with Earle's salts, L-glutamine, 8% FBS (Hyclone, A-1111-L) and 100 units/mL Penicillin-100 μg/mL Streptomycin. For assay conditions, FBS was reduced to 2%. Cells are seeded into 96-well tissue culture plates at a density of 5×10^4 cells/well after being incubated for 45 min at 37° C. in the presence of HSV-1 or HSV-2 (MOI=0.001). Test compounds are added to the wells and the plates are incubated at 37° C. for 40-48 hours. Cell lysates are prepared as follows: media was removed and replaced with 150 μL/well 0.2 N NaOH with 1% Igepal CA 630 or NP-40. Plates were incubated up to 14 days at room temperature in a humidified chamber to prevent evaporation.
(b) Preparation of Detection DNA.
For the detection probe, a gel-purified, digoxigenin-labeled, […] PCR fragment of the HSV UL-15 sequence was utilized. PCR conditions included 0.5 μM primers, 180 μM dTTP, 20 μM dUTP-digoxigenin (Boehringer Mannheim 1558706), 200 μM each of dATP, dCTP, and dGTP, 1×PCR Buffer II (Perkin Elmer), 2.5 mM MgCl2, 0.025 units/μL of AmpliTaq Gold polymerase (Perkin Elmer), and 5 ng of gel-purified HSV DNA per 100 μL Extension conditions were 10 min at 95° C., followed by 30 cycles of 95° C. for 1 min, 55° C. for 30 sec, and 72° C. for 2 min. The amplification was completed with a 10-min incubation at 72° C. Primers were selected to amplify a 728 bp probe spanning a section of the HSV1 UL15 open reading frame (nucleotides 249-977). Single-stranded transcripts were purified with Promega M13 Wizard kits. The final product was mixed 1:1 with a mixture of 6 M GuSCN, 100 mM EDTA and 200 μg/mL herring sperm DNA and stored at 4° C.
(c) Preparation of Capture Plates.
The capture DNA plasmid (HSV UL13 region in pUC) was linearized by cutting with Xba I, denatured for 15 min at 95° C. and diluted immediately into Reacti-Bind DNA Coating Solution (Pierce, 17250, diluted 1:1 with TE buffer, pH 8) at 1 ng/μL. 75 μL/well were added to Corning (#3922 or 9690) white 96-well plates and incubated at room temperature for at least 4 hrs before washing twice with 300 μL/well 0.2×SSC/0.05% Tween-20 (SSC/T buffer). The plates were then incubated overnight at room temperature with 150 μL/well 0.2 N NaOH, 1% IGEPAL and 10 μg/mL herring sperm DNA.
Twenty-seven (27) μL of cell lysate was combined with 45 μL of hybridization solution (final concentration: 3M GuSCN, 50 mM EDTA, 100 μg/ml salmon sperm DNA, 5×Denhardt's solution, 0.25×APE, and 5 ng of the digoxigenin-labeled detection probe). APE is 1.5 M NH4-acetate, 0.15 M NH4H2 phosphate, and 5 mM EDTA adjusted to pH 6.0. Mineral oil (50 μL) was added to prevent evaporation. The hybridization plates were incubated at 95° C. for 10 minutes to denature the DNA, then incubated at 42° C. overnight. The wells were washed 6× with 300 μL/well SSC/T buffer then incubated with 75 μL/well anti-digoxigenin-HRP-conjugated antibody (Boehringer Mannheim 1207733, 1:5000 in TE) for 30 min at room temperature. The wells were washed 6× with 300 μL/well with PBS/0.05% Tween-20 before 75 μL/well SuperSignal LBA substrate (Pierce) was added. The plates were incubated at room temperature for 30 minutes and chemiluminescence was measured in a Wallac Victor reader.
The following results were obtained for HSV-1.
`CN1CCN(CCCNc2nccc(-c3c(-c4ccc(F)cc4)nn4cc(C(F)(F)F)ccc34)n2)CC1` [Example 32, N-{4-[2-(4-fluorophenyl)-6-(trifluoromethyl)pyrazolo-[1,5-a]pyridin-3-yl]pyrimidin-2-yl}-N-[3-(4-methylpiperazin-1-yl)propyl]amine] had an IC50 of 10000 nM.

The assay is the same for the next values; noted with them: Human alphaherpesvirus 1; HSV-1 in Vero 76 cells, MOI=0.001, 40-48 hours at 37° C.; read-out: IC50.
For the compound `CC(C)Nc1nccc(-c2c(-c3ccc(F)cc3)nn3ccccc23)n1` [Example 17, 4-[2-(4-Fluorophenyl)pyrazolo[1,5-a]pyridin-3-yl]-N-(2-propyl)-2-pyrimidinamine], the IC50 came out at 1500 nM.
The same measure, in the same setting: in the case of `Fc1ccc(-c2nn3ccc(N4CCCC4)cc3c2-c2ccnc(NC3CCCC3)n2)cc1` [Example 37, N-Cyclopentyl-4-[2-(4-fluorophenyl)-5-(1-pyrrolidinyl)pyrazolo[1,5-a]pyridin-3-yl]-2-pyrimidinamine] it was 1400 nM; in that of `Nc1nccc(-c2c(-c3ccc(F)cc3)nn3cc(C(F)(F)F)ccc23)n1` [Example 19, 4-[2-(4-Fluorophenyl)-6-trifluoromethylpyrazolo[1,5-a]pyridin-3-yl]-2-pyrimidinamine], greater than 40000 nM.
The same measure, in the same setting: for `O=C(NC1CC1)c1ccc2c(-c3ccnc(NC4CC4)n3)c(-c3ccc(F)cc3)nn2c1` [Example 48, N-Cyclopropyl-3-[2-(cyclopropylamino)-4-pyrimidinyl]-2-(4-fluorophenyl)pyrazolo[1,5-a]pyridine-6-carboxamide] the value was 900 nM.
On the same count and under the same terms, in the case of `Fc1ccc(-c2nn3ccccc3c2-c2ccnc(NCc3ccncc3)n2)cc1` [Example 29, 4-[2-(4-Fluorophenyl)pyrazolo[1,5-a]pyridin-3-yl]-N-(4-pyridinylmethyl)-2-pyrimidinamine] it was 10000 nM; in that of `Fc1ccc(-c2nn3cc(C(F)(F)F)ccc3c2-c2ccnc(NCc3ccccc3)n2)cc1` [Example 20, N-Benzyl-4-[2-(4-fluorophenyl)-6-trifluoromethylpyrazolo[1,5-a]pyridin-3-yl]-2-pyrimidinamine], 16000 nM; in that of `CCCCNc1nccc(-c2c(-c3ccc(F)cc3)nn3c(C)cccc23)n1` [Example 85, N-Butyl-4-[2-(4-fluorophenyl)-7-methylpyrazolo[1,5-a]pyridin-3-yl]-2-pyrimidinamine], 1000 nM.
As to `CCCCOc1cccc2c(-c3ccnc(NC4CCCC4)n3)c(-c3ccc(OC)cc3)nn12` [Example 228, 4-[7-Butoxy-2-(4-methoxyphenyl)pyrazolo[1,5-a]pyridin-3-yl]-N-cyclopentyl-2-pyrimidinamine], the IC50 turned out to be 280 nM.
The same measure, in the same setting: for `CCCCNc1nccc(-c2c(-c3ccc(F)cc3)nn3ccccc23)n1` [Example 16, N-Butyl-4-[2-(4-fluorophenyl)pyrazolo[1,5-a]pyridin-3-yl]-2-pyrimidin-amine] the value was greater than 20000 nM; for `CCOC(=O)c1ccc2c(-c3ccnc(NC4CC4)n3)c(-c3ccc(OC)cc3)nn2c1` [Example 97, Ethyl 3-[2-(cyclopropylamino)pyrimidin-4-yl]-2-(4-methoxyphenyl)-pyrazolo[1,5-a]pyridine-6-carboxylate], 16000 nM.
Same read-out and setting: for `Fc1ccc(-c2nn3ccccc3c2-c2cc(-c3ccccc3)nc(NC3CCCC3)n2)cc1` [Example 49, N-Cyclopentyl-4-[2-(4-fluorophenyl)pyrazolo[1,5-a]pyridin-3-yl]-6-phenyl-2-pyrimidinamine] the value was 2900 nM; for `CN(C)C(=O)c1cccc2c(-c3ccnc(NC4CC4)n3)c(-c3ccc(F)cc3)nn12` [Example 88, Dimethyl 2-(4-fluorophenyl)-3-(4-(2-cyclopropylamino)pyrimidinyl)-7-pyrazolo[1,5-a]pyridinylcarboxamide], 15000 nM; for `OCCCNc1cc(-c2c(-c3ccc(F)cc3)nn3ccccc23)ccn1` [Example 3, 3-(4-[2-(4-Fluorophenyl)pyrazolo[1,5-a]pyridin-3-yl]-2-pyridinylamino)-1-propanol], 1500 nM.
On the same count and under the same terms, in the case of `CSc1cc(Cl)cc2c(-c3ccnc(NC4CCCC4)n3)c(-c3cccc(Cl)c3)nn12` [Example 229, 4-[5-Chloro-2-(3-chlorophenyl)-7-(methylsulfanyl)pyrazolo[1,5-a]pyridin-3-yl]-N-cyclopentyl-2-pyrimidinamine] it was 1000 nM; in that of `Fc1ccc(-c2nn3cc(C(F)(F)F)ccc3c2-c2ccnc(NCC(F)(F)F)n2)cc1` [Example 22, 4-[2-(4-Fluorophenyl)-6-trifluoromethylpyrazolo[1,5-a]pyridin-3-yl]-N-(2,2,2-trifluoroethyl)-2-pyrimidinamine], 4300 nM; in that of `Fc1ccc(-c2nn3cc(C(F)(F)F)ccc3c2-c2ccnc(NC3CC3)n2)cc1` [Example 21, N-Cyclopropyl-4-[2-(4-fluorophenyl)-6-trifluoromethylpyrazolo[1,5-a]pyridin-3-yl]-2-pyrimidinamine], 800 nM.
Take `OCCNc1cc(-c2c(-c3ccc(F)cc3)nn3ccccc23)ccn1` [Example 9, 2-(4-[2-(4-Fluorophenyl)pyrazolo[1,5-a]pyridin-3-yl]-2-pyridinylamino)-1-ethanol]: the half-inhibitory concentration (IC50) was determined as 2400 nM.
The same measure, in the same setting: in the case of `CSc1cccc2c(-c3cc(NC4CCCC4)ncn3)c(-c3ccc(F)cc3)nn12` [Example 230, N-cyclopentyl-6-[2-(4-fluorophenyl)-7-(methylthio)pyrazolo[1,5-a]pyridin-3-yl]pyrimidin-4-amine] it was 1300 nM; in that of `Cc1ccc2c(-c3ccnc(NC4CCCC4)n3)c(-c3ccc(F)cc3)nn2c1` [Example 34, N-Cyclopentyl-4-[2-(4-fluorophenyl)-6-methylpyrazolo[1,5-a]pyridin-3-yl]-2-pyrimidinamine], 2000 nM; in that of `CC(C)Sc1cc(N2CCOCC2)cc2c(-c3ccnc(NC4CCCC4)n3)c(-c3ccc(F)cc3)nn12` [Example 232, N-Cyclopentyl-4-[2-(4-fluorophenyl)-7-(isopropylthio)-5-morpholin-4-ylpyrazolo[1,5-a]pyridin-3-yl]pyrimidin-2-amine], 900 nM.
Same read-out and setting: for `COc1nccc(-c2c(-c3ccc(F)cc3)nn3c(OCC(F)(F)F)cccc23)n1` [Example 66, 2-(4-Fluorophenyl)-3-(4-(2-methyloxy)pyrimidinyl)-7-(2,2,2-trifluoroethoxy)pyrazolo[1,5-a]pyridine] the value was 25000 nM; for `CN(C)C(=O)c1ccc2c(-c3ccnc(NC4CC4)n3)c(-c3ccc(F)cc3)nn2c1` [Example 47, 3-[2-(Cyclopropylamino)-4-pyrimidinyl]-2-(4-fluorophenyl)-N,N-dimethylpyrazolo[1,5-a]pyridine-6-carboxamide], 1000 nM; for `Fc1ccc(-c2nn3ccccc3c2-c2ccnc(NCc3ccccn3)n2)cc1` [Example 28, 4-[2-(4-Fluorophenyl)pyrazolo[1,5-a]pyridin-3-yl]-N-(2-pyridinylmethyl)-2-pyrimidinamine], 730 nM.
The same measure, in the same setting: in the case of `COc1ccc(CNc2cc(-c3c(-c4ccc(F)cc4)nn4ccccc34)ccn2)cc1` [Example 6, 4-[2-(4-Fluorophenyl)pyrazolo[1,5-a]pyridin-3-yl]-N-(4-methoxybenzyl)-2-pyridinamine] it was 4200 nM; in that of `COc1ccc(-c2nn3ccccc3c2-c2ccnc(NC3CCCC3)n2)c(OC)c1` [Example 92, N-Cyclopentyl-4-[2-(2,4-dimethoxyphenyl)pyrazolo[1,5-a]pyridin-3-yl]pyrimidin-2-amine], 20000 nM.
In the case of `Fc1ccc(-c2nn3c(OCC(F)(F)F)cccc3c2-c2ccnc(OCC(F)(F)F)n2)cc1` [Example 68, 2-(4-Fluorophenyl)-3-(4-(2-(2,2,2-trifluoroethoxy))pyrimidinyl)-7-(2,2,2-trifluoroethoxy)pyrazolo[1,5-a]pyridine], the IC50 worked out at 15000 nM.
